Tested on: Zein protein
Test: Zein solubilization test (mildness)
Experimental: • 1. Prepare a 5 wt. % aqueous solution of the surfactant. If the natural pH of the system differs from that desired, adjust by incremental addition of acid or base. • 2. Mix 4 grams of Zein protein in 40 grams of the surfactant solution. Allow the mixture to stand at room temperature for 24 hours with frequent vigorous shaking. • 3. Filter the supernatant of the Zein/surfactant mixture using a syringe filter with a 0.45 micron Nylon membrane. Dilute the filtered solution 100-fold with 2% SDS solution (i.e., 0.1 gram filtered solution diluted in 10 grams of 2% SDS solution). As a reference, also prepare a diluted surfactant solution by mixing 0.1 grams of 5 wt. % surfactant solution with 10 grams of 2% SDS solution. • 4. The Zein concentration is determined using a UV/VIS spectrophotometer operated in the range 200-350 nm at a scanning rate of 800 nm/min, using a 2% SDS solution as the background. […] The Zein solubility in the 5 wt. % surfactant solution is C, times the dilution factor.
[…] Zein and surfactant were contacted for 24 hours.
Zein tests reported in Table V were all conducted at 45° C. rather than at room temperature.

Sodium lauryl ether sulfate [SLES]
Percent Zein Solubilized (Table I, pH 6.0, 5% total surfactant solutions, Zein and surfactant contacted 24 hours): 4.64% | Percent Zein Solubilized (Table II, comparators at pH 6.0): 4.11% | Percent Zein Solubilized (Table IV, C12 MAP blended with other carboxylic acids, pH 5.0): 3.52% | Percent Zein Solubilized (Table V, C12 MAP blended with fatty alcohols, pH 5.0, conducted at 45° C.): 3.52% | Percent Zein Solubilized (Table VI, negative controls, strong acid auxiliary agents, pH 5.0): 3.52% | Percent Zein Solubilized (Table VII, C12 MAP acid 60/40 weight ratio with auxiliary, combined 5% in water, amino acid counterion to pH 5, listed as 42): 3.55% | Percent Zein Solubilized (Table VII, C12 MAP acid 60/40 weight ratio with auxiliary, combined 5% in water, amino acid counterion to pH 5, listed as 46): 3.42%
